Patent US6472348B1, “Pyridone derivatives and herbicides” (Kumiai Chemical Industry Co., Ltd., priority 1996, dated 2002)

Assays:
Format in all cases: in vivo
barnyardgrass (Ec) [1] = test: Test Example 1: herbicidal effects by paddy field soil treatment; conditions: 100 g of the active ingredient per 10 ares, 21st day after the application, index 0-5 of Table 47;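 also: grade of growth control; 5 = at least 90%; 4 = 70 to 90%; 3 = 50 to 70%; 2 = 30 to 50%; 1 = 10 to 30%; 0 = under 10%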
Protocol: (§1) (Test on Herbicidal Effects by Paddy Field Soil Treatment)
(§2) In a plastic pot (surface area: 100 cm^2) filled with paddy field soil, barnyardgrass (Ec), monochoria (Mo) and bulrush (Sc) were sown after puddling and leveling, and flooded to a water depth of 3 cm. […] The dose was 100 g of the active ingredient per 10 ares. The plants were then cultured in a green house, and the evaluation of the herbicidal effects was conducted on the 21st day after the application in accordance with the standards as identified in Table 47.

bulrush (Sc) = test: as above; conditions: 100 g of the active ingredient per 10 ares, 21st day after the application, index 0-5 of Table 47;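 also: grade of growth control; 5 = at least 90%; 4 = 70 to 90%; 3 = 50 to 70%; 2 = 30 to 50%; 1 = 10 to 30%; 0 = under 10%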
Protocol: as §1, §2

monochoria (Mo) = test: as above; conditions: 100 g of the active ingredient per 10 ares, 21st day after the application, index 0-5 of Table 47;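 also: grade of growth control; 5 = at least 90%; 4 = 70 to 90%; 3 = 50 to 70%; 2 = 30 to 50%; 1 = 10 to 30%; 0 = under 10%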
Protocol: as §1, §2

Digitaria ciliaris (Di) = test: Test Example 2: herbicidal effects by upland field soil treatment; conditions: 100 g of the active ingredient per 10 ares, 21st day after the application, index 0-5 of Table 47;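 also: grade of growth control; 5 = at least 90%; 4 = 70 to 90%; 3 = 50 to 70%; 2 = 30 to 50%; 1 = 10 to 30%; 0 = under 10%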
Excerpt: (§3) (Test on Herbicidal Effects by Upland Field Soil Treatment)

barnyardgrass (Ec) [2] = test: as above; conditions: 100 g of the active ingredient per 10 ares, 21st day after the application, index 0-5 of Table 47
Excerpt: as §3

[3] = test system: common lambsquarters (Ch); test: as above; conditions: 100 g of the active ingredient per 10 ares, 21st day after the application, index 0-5 of Table 47
Excerpt: as §3

pale smartweed (Po) [4] = test: as above; conditions: 100 g of the active ingredient per 10 ares, 21st day after the application, index 0-5 of Table 47
Excerpt: as §3

rice flatsedge (Ci) [5] = test: as above; conditions: 100 g of the active ingredient per 10 ares, 21st day after the application, index 0-5 of Table 47
Excerpt: as §3

slender amaranth (Am) [6] = test: as above; conditions: 100 g of the active ingredient per 10 ares, 21st day after the application, index 0-5 of Table 47
Excerpt: as §3

Diaitaria ciliaris (Di) = test: Test Example 3: herbicidal effects by upland field foliage treatment; set-up: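 grade of growth control; 5 = at least 90%; 4 = 70 to 90%; 3 = 50 to 70%; 2 = 30 to 50%; 1 = 10 to 30%; 0 = under 10%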; conditions: 100 g of the active ingredient per 10 ares, evaluated on the 14th day after treatment
Protocol: (§4) (Test on Herbicidal Effects by Upland Field Foliage Treatment)
(§5) In a plastic pot (surface area: 120 cm^2) filled with sand, barnyardgrass (Ec), Diaitaria ciliaris (Di), pale smartweed (Po), slender amaranth (Am), common lambsquarters (Ch) and rice flatsedge (Ci) were sown and covered with soil and were cultured in a green house for 2 weeks. […] The plants were then cultured in the green house, and the evaluation of the herbicidal effects was conducted on the 14th day after the treatment in accordance with the standards as identified in Table 47. Symbol—represents “not tested”.

barnyardgrass (Ec) [7] = test: as above; set-up: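 grade of growth control; 5 = at least 90%; 4 = 70 to 90%; 3 = 50 to 70%; 2 = 30 to 50%; 1 = 10 to 30%; 0 = under 10%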; conditions: 100 g of the active ingredient per 10 ares, evaluated on the 14th day after treatment
Protocol: as §4, §5

[8] = test system: common lambsquarters (Ch); test: as above; set-up: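 grade of growth control; 5 = at least 90%; 4 = 70 to 90%; 3 = 50 to 70%; 2 = 30 to 50%; 1 = 10 to 30%; 0 = under 10%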; conditions: 100 g of the active ingredient per 10 ares, evaluated on the 14th day after treatment
Protocol: as §4, §5

pale smartweed (Po) [9] = test: as above; set-up: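 grade of growth control; 5 = at least 90%; 4 = 70 to 90%; 3 = 50 to 70%; 2 = 30 to 50%; 1 = 10 to 30%; 0 = under 10%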; conditions: 100 g of the active ingredient per 10 ares, evaluated on the 14th day after treatment
Protocol: as §4, §5

rice flatsedge (Ci) [10] = test: as above; set-up: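 grade of growth control; 5 = at least 90%; 4 = 70 to 90%; 3 = 50 to 70%; 2 = 30 to 50%; 1 = 10 to 30%; 0 = under 10%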; conditions: 100 g of the active ingredient per 10 ares, evaluated on the 14th day after treatment
Protocol: as §4, §5

slender amaranth (Am) [11] = test: as above; set-up: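 grade of growth control; 5 = at least 90%; 4 = 70 to 90%; 3 = 50 to 70%; 2 = 30 to 50%; 1 = 10 to 30%; 0 = under 10%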; conditions: 100 g of the active ingredient per 10 ares, evaluated on the 14th day after treatment
Protocol: as §4, §5

| Structure (SMILES) | Herbicidal effects Ec (barnyardgrass (Ec) [1]) | Herbicidal effects Sc (bulrush (Sc)) | Herbicidal effects Mo (monochoria (Mo)) | Herbicidal effects Di (Digitaria ciliaris (Di)) | Herbicidal effects Ec (barnyardgrass (Ec) [2]) | Herbicidal effects Ch [3] | Herbicidal effects Po (pale smartweed (Po) [4]) | Herbicidal effects Ci (rice flatsedge (Ci) [5]) | Herbicidal effects Am (slender amaranth (Am) [6]) | Herbicidal effects Di (Diaitaria ciliaris (Di)) | Herbicidal effects Ec (barnyardgrass (Ec) [7]) | Herbicidal effects Ch [8] | Herbicidal effects Po (pale smartweed (Po) [9]) | Herbicidal effects Ci (rice flatsedge (Ci) [10]) | Herbicidal effects Am (slender amaranth (Am) [11]) |
| --- | --- | --- | --- | --- | --- | --- | --- | --- | --- | --- | --- | --- | --- | --- | --- |
| Cn1c(C(F)(F)F)ccc(-c2ccc(Cl)cc2Cl)c1=O [1-3] | 5 | 5 | 5 | 5 | 5 | 5 | 5 | 5 | 5 | 5 | 5 | 5 | 5 | 5 | 5 |
| CCOC(=O)C(C)Oc1cc(-c2ccc(C(F)(F)F)n(C)c2=O)c(F)cc1Cl (stereo not drawn) [1-21] | 5 | 5 | 5 | 5 | 5 | 5 | 5 | 5 | 5 | 5 | 5 | 5 | 5 | 5 | 5 |
| COCOc1cc(-c2ccc(C(F)(F)F)n(C)c2=O)c(F)cc1Cl [1-24] | 5 | 5 | 5 | 5 | 5 | 5 | 5 | 5 | 5 | 5 | 5 | 5 | 5 | 5 | 5 |
| CC(C)Oc1cc(-c2ccc(C(F)(F)F)n(C)c2=O)c(Cl)cc1Cl [1-29] | 5 | 5 | 5 | 5 | 5 | 5 | 5 | 5 | 5 | 5 | 5 | 5 | 5 | 5 | 5 |
| C=CCOc1cc(-c2ccc(C(F)(F)F)n(C)c2=O)c(Cl)cc1Cl [1-32] | 5 | 5 | 5 | 5 | 5 | 5 | 5 | 5 | 5 | 5 | 5 | 5 | 5 | 5 | 5 |
| CC(C)Sc1cc(-c2ccc(C(F)(F)F)n(C)c2=O)c(Cl)cc1Cl [1-51] | 5 | 5 | 5 | 5 | 4 | 5 | 5 | 5 | 5 | 5 | 4 | 5 | 5 | 5 | 5 |
| CCS(=O)(=O)Nc1cc(-c2ccc(C(F)(F)F)n(C)c2=O)c(F)cc1Cl [1-61] | 5 | 5 | 5 | 5 | 5 | 5 | 5 | 5 | 5 | 5 | 5 | 5 | 5 | 5 | 5 |
| CCOC(=O)C(C)Nc1cc(-c2ccc(C(F)(F)F)n(C)c2=O)c(F)cc1Cl (stereo not drawn) [1-64] | 5 | 5 | 5 | 5 | 5 | 5 | 5 | 5 | 5 | 5 | 5 | 5 | 5 | 5 | 5 |
| CCSC(=O)c1cc(-c2ccc(C(F)(F)F)n(C)c2=O)c(F)cc1Cl [1-67] | 5 | 5 | 5 | 5 | 5 | 5 | 5 | 5 | 5 | 5 | 5 | 5 | 5 | 5 | 5 |
